# Source: publication PMC4336331, “Novel Receptor-Derived Cyclopeptides to Treat Heart Failure Caused by Anti-β1-Adrenoceptor Antibodies in a Human-Analogous Rat Model” (PLoS ONE, 2015)
# Peptide text beside a SMILES is read from it.
# Key:
# anti-β1EC2-antibodies = test: Free anti-β1EC2-titers by ELISA, prevention-study; assay type: in vivo, Lewis/CrlBR rats; settings: 1.0 mg/kg i.v. monthly
# Experimental: For treatment groups (a), (b), and (f) in total n = 38 non-immunised rats were injected with 0.9% NaCl and treated in parallel (“negative” controls). Blood was taken at regular intervals; rat-IgG was prepared by caprylic acid precipitation and assayed for reactivity by ELISA or competition-ELISA against linear peptides corresponding to the human β1EC2-sequence (AA199-223)[12], and by immuno-fluorescence microscopy with human embryonic kidney (HEK)293 cells stably expressing 0.4 pmol β1-AR/mg membrane protein (HEKβ1-cells). Specificity of the anti-β1EC2-abs was confirmed by co-localisation experiments using previously characterised N-terminal rabbit anti-β1-abs. Bound antibodies were detected with appropriate species-specific secondary antibodies (Dianova, Hamburg, Germany; anti-rabbit-, or anti-rat-Fab2, conjugated to Cy2 or Cy3). Calibrated rat-IgG (Dianova) served to quantify specific IgG-antibodies.
# Fig 2 Study protocol and cardioprotection with cyclic β1EC2-peptides. Flow charts of the (A) prevention- and (E) therapy-study with β1EC2-mimicking peptides in the rat. Numbers given refer to animal-numbers in the respective study-groups. Immunisation with β1EC2/GST-FP (or 0.9% NaCl for controls) was started at t = 0. […] Titers were measured before and 24h after CP-injection. […] For better readability error-bars are not shown in the graph. […]
# CD4+ T-cells = test: Recall-assay with splenic CD4+ T-cells; assay type: cell-based, Lewis/CrlBR rats; settings: 1.0 μg/ml β1EC2-CP; T-cells from spleens of treated and untreated rats; [3H]-thymidine (Fig. 5B-D)
# Experimental: (a) Recall-assays with T-cells from spleens of immunised untreated vs. β1EC2-CP-treated animals were conducted as described in [60]. In brief, to purify CD4^+ T-cells from the splenic cell preparations, B-cells and CD8^+ T-cells were depleted by commercially available magnetic beads (MACS, Miltenyi Biotec, Bergisch-Gladbach, Germany) yielding a purity >85%. 1x10^5 of the purified CD4^+ T-cells were then co-incubated in 96-well plates with 1x10^6 irradiated thymic antigen presenting cells (prepared from a younger rat). Reagents added in the different assays were 1.0 μg/ml β1EC2-CP, 1.0 μg/ml tuberculin purified protein derivative (PPD, internal control), 1.0 μg/ml glutathion-S-transferase (GST), as well as 1.0 and 0.1 μg/ml GST/β1EC2-fusion proteins (FP), respectively. Measured T-cell reactivities were normalised to medium. After 48 h of incubation the cells were pulsed with 1.25 μCi/well [^3H]-thymidine and further incubated for 16 h before the cells were harvested; the DNA-incorporated radioactivity was measured using a beta-plate counter.
# Fig 5 Immunology of cyclic β1EC2-peptides: fate of β1EC2-specific T- and B-cells. (A) Titer-course of anti-β1EC2-abs in β1EC2-CP-treated rats during the first 6 months of the prevention-study before and 24h after cyclopeptide-injection. […] For better readability error-bars are not shown in the graph. […]
# GRK2 and GRK5 = test: qRT-PCR of cardiac GRK expression, therapy-study; assay type: in vivo, Lewis/CrlBR rats; settings: qRT-PCR normalised to GAPDH (Fig. 4C)
compound,measurement,setting,value
CC(C)[C@@H]1NC(=O)[C@H](Cc2ccccc2)NC(=O)[C@H](CC(=O)O)NC(=O)[C@H](CS)NC(=O)[C@H](CS)NC(=O)[C@H](CCCCN)NC(=O)[C@@H]2CCCN2C(=O)[C@H](CC(=O)O)NC(=O)[C@H](CC(N)=O)NC(=O)[C@H](Cc2ccc(O)cc2)NC(=O)[C@H](CS)NC(=O)[C@H](CCCNC(=N)N)NC(=O)[C@H](CCCNC(=N)N)NC(=O)[C@H](C)NC(=O)[C@H](CCC(=O)O)NC(=O)[C@H](CC(=O)O)NC(=O)[C@H](CO)NC(=O)[C@H](CCC(=O)O)NC(=O)[C@H](C)NC(=O)[C@H](CCCNC(=N)N)NC(=O)[C@H](C)NC(=O)[C@H](CCC(N)=O)NC(=O)CNC(=O)[C@H](CCCNC(=N)N)NC(=O)[C@H](CC(N)=O)NC(=O)[C@H]([C@@H](C)O)NC1=O [β1EC2-CP] (cyclo(AESDEARRCYNDPKCCDFVTNRGQAR)),reduction in free anti-β1EC2-abs vs. initial values,"anti-β1EC2-antibodies; after 5 injections, ELISA (Fig. 2B)",> 80%
same,anti-β1EC2-titers in % of the initial values,"anti-β1EC2-antibodies; after 9–10 injections, despite monthly antigen-boosts (Fig. 2B)",~10%
same,"in vitro recall response of purified CD4+ T-cells, in words",CD4+ T-cells,clearly responded to the FP but not to β1EC2-CP
same,"upregulation of GRK2 and GRK5, in words",GRK2 and GRK5,reverted
